Measurements as given in patent US20160039825A1 (BIOGEN MA INC., priority 2013, published 2016).

Target: T1, Human ATX protein (Homo sapiens, UniProt Q13822)
T1 construct: made in house
Test: Autotaxin (ATX) assay, FRET with FS-3 substrate
Type: biochemical
Conditions: upper bound bins (no greater than 100, 250 or 500 nM); FS-3 2 μM, ATX 1.0 μg/mL
How it was run: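 In-house human ATX (1.0 μg/mL final) was preincubated with compound for 30 min at room temperature in Tris buffer pH 7.4 with NaCl, KCl, CaCl2, MgCl2 and 1 mg/mL fatty acid-free BSA. FS-3 (2 μM final) was added and the plate shaken 2 h at room temperature in the dark. Fluorescence was read at ex 485/em 538 nm.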

SMILES | IC50 [µM]
CCC1(CC)CN(C)CCN1C(=O)c1cc2n(n1)CCCN(C(=O)OCc1cc(Cl)cc(C(F)(F)F)c1)C2 [Example 229] | ≤ 0.1
CC1CCN(C(=O)c2cc3n(n2)CCCN(C(=O)OCc2cc(Cl)cc(Cl)c2)C3)CC1 [Example 21, 3,5-Dichlorobenzyl 2-(4-methylpiperidine-1-carbonyl)-7,8-dihydro-4H-pyrazolo[1,5-a][1,4]diazepine-5(6H)-carboxylate] | ≤ 0.1
CC1(C)CC(Nc2cc3n(n2)CCCN(C(=O)OCc2cc(C(F)(F)F)cc(C(F)(F)F)c2)C3)CCN1 (stereo not shown) [Example 320] | ≤ 0.1
NCCCCNC(=O)c1cc2n(n1)CCCN(C(=O)OCc1cc(C(F)(F)F)cc(C(F)(F)F)c1)C2 [Example 182] | ≤ 0.1
CN1CCN(C(=O)c2cc3n(n2)CCCN(C(=O)OCc2cc(C(F)(F)F)cc(C(F)(F)F)c2)C3)C2(CCCC2)C1 [Example 238] | ≤ 0.1
O=C(OCc1cc(Cl)cc(C(F)(F)F)c1)N1CCn2nc(C(=O)N3CC4CNCC4C3)cc2C1 (stereo not shown) [Example 442] | ≤ 0.1
O=C(OCc1cc(Cl)cc(C(F)(F)F)c1)N1CCCn2nc(C3CN4CCCC[C@@H]4CO3)cc2C1 (mixture of isomers) [Example 254, 3-chloro-5-(trifluoromethyl)benzyl 2-((9aR)-octahydropyrido[2,1-c][1,4]oxazin-3-yl)-7,8-dihydro-4H-pyrazolo[1,5-a][1,4]diazepine-5(6H)-carboxylate] | ≤ 0.1
O=C(OCc1cc(C(F)(F)F)cc(C(F)(F)F)c1)N1CCCn2nc(Br)cc2C1 [Example 280] | ≤ 0.1
O=C(OCc1cc(C(F)(F)F)cc(C(F)(F)F)c1)N1CCCn2nc(C3=CCNCC3)cc2C1 [Example 373, 3,5-bis(trifluoromethyl)benzyl 2-(1,2,3,6-tetrahydropyridin-4-yl)-7,8-dihydro-4H-pyrazolo[1,5-a][1,4]diazepine-5(6H)-carboxylate] | ≤ 0.1
N#CC1CN(C(=O)c2cc3n(n2)CCCN(C(=O)OCc2cc(Cl)cc(C(F)(F)F)c2)C3)CCN1 (stereo not shown) [Example 171] | ≤ 0.1
C[C@@H]1CCCN1CC(=O)c1cc2n(n1)CCCN(C(=O)OCc1cc(Cl)cc(C(F)(F)F)c1)C2 [Example 265] | ≤ 0.1
CCOC(=O)c1cc2n(n1)CCCN(C(=O)OCc1cc(C(F)(F)F)cc(C(F)(F)F)c1)C2 [Example 2, 5-(3,5-Bis(trifluoromethyl)benzyl) 2-ethyl 7,8-dihydro-4H-pyrazolo[1,5-a][1,4]diazepine-2,5(6H)-dicarboxylate] | ≤ 0.1
O=C(O)C1CCCN(C(=O)c2cc3n(n2)CCCN(C(=O)OCc2cc(Cl)cc(Cl)c2)C3)C1 (stereo not shown) [Example 88, 1-(5-(((3,5-dichlorobenzyl)oxy)carbonyl)-5,6,7,8-tetrahydro-4H-pyrazolo[1,5-a][1,4]diazepine-2-carbonyl)piperidine-3-carboxylic acid] | ≤ 0.25
CC1CC(Nc2cc3n(n2)CCCN(C(=O)OCc2cc(C(F)(F)F)cc(C(F)(F)F)c2)C3)CC(C)N1 (stereo not shown) [Example 322] | ≤ 0.1
CN1C2CCC1CC(c1cc3n(n1)CCCN(C(=O)OCc1cc(C(F)(F)F)cc(C(F)(F)F)c1)C3)C2 (stereo not shown) [Example 381] | ≤ 0.1
CC1CN(C(=O)c2cc3n(n2)CCCN(C(=O)OCc2cc(Cl)cc(C(F)(F)F)c2)C3)CCN1 (stereo not shown) [Example 208] | ≤ 0.1
CN1CCC(c2cc3n(n2)CCCN(C(=O)OCc2cc(C(F)(F)F)cc(C(F)(F)F)c2)C3)CC1 [Example 372, 3,5-bis(trifluoromethyl)benzyl 2-(1-methylpiperidin-4-yl)-7,8-dihydro-4H-pyrazolo[1,5-a][1,4]diazepine-5(6H)-carboxylate] | ≤ 0.1
O=C(O)C1CC2CCCC(C1)N2C(=O)c1cc2n(n1)CCCN(C(=O)OCc1cccc(C(F)(F)F)c1)C2 (stereo not shown) [Example 58, 9-(5-((3-(Trifluoromethyl)benzyloxy)carbonyl)-5,6,7,8-tetrahydro-4H-pyrazolo[1,5-a][1,4]diazepine-2-carbonyl)-9-aza-bicyclo[3.3.1]nonane-3-carboxylic acid] | ≤ 0.1
CCN1CCN(C(=O)c2cc3n(n2)CCCN(C(=O)OCc2cc(C(F)(F)F)cc(C(F)(F)F)c2)C3)C2(CC2)C1 [Example 237] | ≤ 0.1
CNC1CCN(C(=O)c2cc3n(n2)CCCN(C(=O)OCc2cc(Cl)cc(C(F)(F)F)c2)C3)C1 (stereo not shown) [Example 195] | ≤ 0.1
CN1CCCN(c2cc3n(n2)CCCN(C(=O)OCc2cc(C(F)(F)F)cc(C(F)(F)F)c2)C3)CC1 [Example 355] | ≤ 0.1
O=C(OCc1cc(Cl)cc(C(F)(F)F)c1)N1CCCn2nc(C(=O)N3CCCNCC3)cc2C1 [Example 193] | ≤ 0.1
CCC(Nc1cc2n(n1)CCCN(C(=O)OCc1cc(C(F)(F)F)cc(C(F)(F)F)c1)C2)C(=O)O (stereo not shown) [Example 362] | ≤ 0.1

SMILES | IC50 [µM]
O=C(OCc1cc(C(F)(F)F)cc(C(F)(F)F)c1)N1CCn2nc(C3CN4CCC[C@@H]4CO3)cc2C1 (stereo partly drawn) [Example 256, 3,5-bis(trifluoromethyl)benzyl 2-((8aR)-hexahydro-1H-pyrrolo[2,1-c][1,4]oxazin-3-yl)-6,7-dihydropyrazolo[1,5-a]pyrazine-5(4H)-carboxylate] | ≤ 0.1
CC1C=C(c2cc3n(n2)CCCN(C(=O)OCc2cc(C(F)(F)F)cc(C(F)(F)F)c2)C3)CC(C)N1 (stereo not shown) [Example 378] | ≤ 0.1
Cc1cc2n(n1)CCCN(C(=O)OCc1cc(F)cc(C(F)(F)F)c1)C2 [Example 128, 3-Fluoro-5-(trifluoromethyl)benzyl 2-methyl-7,8-dihydro-4H-pyrazolo[1,5-a][1,4]diazepine-5(6H)-carboxylate] | ≤ 0.25
CC(C)(C)OC(=O)N1CCN(C(=O)c2cc3n(n2)CCN(C(=O)OCc2cc(Cl)cc(C(F)(F)F)c2)C3)C(C)(C)C1 [Example 475] | ≤ 0.1
O=C(OCc1cc(Cl)cc(C(F)(F)F)c1)N1CCCn2nc(C(=O)N3CC4CNC(C4)C3)cc2C1 (stereo not shown) [Example 188] | ≤ 0.1
O=C(O)c1nn2c(c1Cl)CN(C(=O)OCc1cc(C(F)(F)F)cc(C(F)(F)F)c1)CC2 [Example 113, 5-(((3,5-Bis(trifluoromethyl)benzyl)oxy)carbonyl)-3-chloro-4,5,6,7-tetrahydropyrazolo[1,5-a]pyrazine-2-carboxylic acid] | ≤ 0.25
CC(c1cc2n(n1)CCCN(C(=O)OCc1cc(Cl)cc(Cl)c1)C2)N1C2CCCC1CCC2 (stereo not shown) [Example 453] | ≤ 0.25
O=C(O)c1cc2n(n1)CCCN(C(=O)OCc1cc(Cl)cc(C(F)(F)F)c1)C2 [Example 65, 5-(((3-Chloro-5-(trifluoromethyl)benzyl)oxy)carbonyl)-5,6,7,8-tetrahydro-4H-pyrazolo[1,5-a][1,4]diazepine-2-carboxylic acid] | ≤ 0.1
O=C(O)c1cc2n(n1)CCCN(C(=O)OCc1cccc(C(F)(F)F)c1)C2 [Example 67, 5-(((3-(Trifluoromethyl)benzyl)oxy)carbonyl)-5,6,7,8-tetrahydro-4H-pyrazolo[1,5-a][1,4]diazepine-2-carboxylic acid] | ≤ 0.5
O=C(O)C1CNCCN1C(=O)c1cc2n(n1)CCCN(C(=O)OCc1cc(C(F)(F)F)cc(C(F)(F)F)c1)C2 (stereo not shown) [Example 191] | ≤ 0.1
O=C(OCc1cc(C(F)(F)F)cc(C(F)(F)F)c1)N1CCCn2nc(NC3CCCNC3)cc2C1 (stereo not shown) [Example 317] | ≤ 0.25
CC1CNCCN1C(=O)c1cc2n(n1)CCN(C(=O)OCc1cc(C(F)(F)F)cc(C(F)(F)F)c1)C2 (stereo not shown) [Example 423] | ≤ 0.1
O=C(N[C@H]1CC[C@H](C(=O)O)CC1)c1cc2n(n1)CCCN(C(=O)OCc1cc(Cl)cc(Cl)c1)C2 [Example 86, (trans)-4-(5-(((3,5-Dichlorobenzyl)oxy)carbonyl)-5,6,7,8-tetrahydro-4H-pyrazolo[1,5-a][1,4]diazepine-2-carboxamido)cyclohexanecarboxylic acid] | ≤ 0.25
CC1CN(C(=O)c2cc3n(n2)CCCN(C(=O)OCc2cc(C(F)(F)F)cc(C(F)(F)F)c2)C3)CC(C)N1 (stereo not shown) [Example 223] | ≤ 0.1
O=C(OCc1cc(C(F)(F)F)cc(C(F)(F)F)c1)N1CCn2nc(-c3ccncc3)cc2C1 [Example 499] | ≤ 0.1
O=C(O)c1nn2c(c1F)CN(C(=O)OCc1cc(Cl)cc(C(F)(F)F)c1)CCC2 [Example 399, 5-(((3-chloro-5-(trifluoromethyl)benzyl)oxy)carbonyl)-3-fluoro-5,6,7,8-tetrahydro-4H-pyrazolo[1,5-a][1,4]diazepine-2-carboxylic acid] | ≤ 0.1
CC1CN(C(=O)c2cc3n(n2)CCN(C(=O)OCc2cc(C(F)(F)F)cc(C(F)(F)F)c2)C3)CCN1C(=O)OC(C)(C)C (stereo not shown) [Example 467] | ≤ 0.1
C[C@@H]1CNC[C@@H](C)N1C(=O)c1cc2n(n1)CCCN(C(=O)OCc1cc(Cl)cc(C(F)(F)F)c1)C2 [Example 161] | ≤ 0.1
N#Cc1cc2n(n1)CCCN(C(=O)OCc1cc(C(F)(F)F)cc(C(F)(F)F)c1)C2 [Example 125, 3,5-Bis(trifluoromethyl)benzyl 2-cyano-7,8-dihydro-4H-pyrazolo[1,5-a][1,4]diazepine-5(6H)-carboxylate] | ≤ 0.1
CC(c1cc2n(n1)CCCN(C(=O)OCc1cc(C(F)(F)F)cc(C(F)(F)F)c1)C2)N1CCC(F)CC1 (stereo not shown) [Example 512] | ≤ 0.1
CC1(C)C(NCc2cc3n(n2)CCCN(C(=O)OCc2cc(C(F)(F)F)cc(C(F)(F)F)c2)C3)CC1C(=O)O (stereo not shown) [Example 287, 3-(((5-(((3,5-bis(trifluoromethyl)benzyl)oxy)carbonyl)-5,6,7,8-tetra-hydro-4H-pyrazolo[1,5-a][1,4]diazepin-2-yl)methyl)amino)-2,2-dimethylcyclo-butanecarboxylic acid] | ≤ 0.5
O=C(O)c1nn2c(c1Br)CN(C(=O)OCc1cc(C(F)(F)F)cc(C(F)(F)F)c1)CCC2 [Example 115, 5-(((3,5-Bis(trifluoromethyl)benzyl)oxy)carbonyl)-3-bromo-5,6,7,8-tetrahydro-4H-pyrazolo[1,5-a][1,4]diazepine-2-carboxylic acid] | ≤ 0.1
O=C(OCc1cc(C(F)(F)F)cc(C(F)(F)F)c1)N1CCCn2nc(S(=O)(=O)N3CCCCC3)cc2C1 [Example 304] | ≤ 0.1
